# Experimental data reported in patent US20240180880A1, “METHODS OF USING EHMT2 INHIBITORS IN TREATING OR PREVENTING BLOOD DISORDERS” (Epizyme, Inc., priority 2017, published 2024).
# Like-named read-outs stand apart in the source and are kept apart here.
# System: 284 cell lines
# Experiment: cells
# Details: Homo sapiens
# Method: A screen of 284 cell lines to assess the antiproliferative effect of EHMT2 inhibition was conducted by treating cell lines in 384-well format with a half-log step dilutions of Compound 205 over 10 concentrations with a maximum concentration of 0.1% v/v DMSO. Cells were plated on Day 0 and treated with compound on Day 1. Culture medium was replaced on day 7 and cells redosed. After 10-day incubation, cells were fixed and stained with nuclear dye. Automated fluorescence microscopy was carried out using a Molecular Devices ImageXpress Micro XL high-content imager, and images were collected with a 4× objective. 16-bit TIFF images were acquired and analyzed with MetaXpress 5.1.0.41 software. Cell proliferation was measured by the fluorescence intensity of the incorporated nuclear dye. Cell count IC50 is the test compound concentration at 50% of maximal response of the untreated control.
smiles,measurement,setting,value
CNc1cc(C)nc(Nc2ccc(OC)c(OCCCN3CCCC3)c2)n1 [Compound 205],IC50,"DU-145, read-out: Cell Count IC50, DU145, Prostate",> 10 µM
same,IC50,"Daoy, read-out: Cell Count IC50, Daoy, Central Nervous System, Medulloblastoma",1 to 10 µM
same,IC50,"Daudi, read-out: Cell Count IC50, Daudi, Hematopoietic, Lymphoma",1 to 10 µM
same,IC50,"Detroit 562, read-out: Cell Count IC50, Detroit 562, Head and Neck",1 to 10 µM
same,IC50,"DoTc2-4510, read-out: Cell Count IC50, DoTc2 4510, Female GU, Cervix",1 to 10 µM
same,IC50,"EFM-19, read-out: Cell Count IC50, EFM-19, Breast",> 10 µM
same,IC50,"FaDu, read-out: Cell Count IC50, FaDu, Head and Neck",1 to 10 µM
same,IC50,"G292, read-out: Cell Count IC50, G-292, clone A141B1, Bone, Osteosarcoma",> 10 µM
same,IC50,"G-361, read-out: Cell Count IC50, G-361, Skin, Melanoma",1 to 10 µM
same,IC50,"G-401, read-out: Cell Count IC50, G-401, Kidney",> 10 µM
same,IC50,"G-402, read-out: Cell Count IC50, G-402, Kidney",1 to 10 µM
same,IC50,"HCT-8, read-out: Cell Count IC50, HCT-8, Colon",> 10 µM
same,IC50,"HCT-15, read-out: Cell Count IC50, HCT-15, Colon",> 10 µM
same,IC50,"HCT-116, read-out: Cell Count IC50, HCT-116, Colon",> 10 µM
same,IC50,"HEC-1-A, read-out: Cell Count IC50, HEC-1-A, Female GU, Uterus",1 to 10 µM
same,IC50,"HEL 92.1.7, read-out: Cell Count IC50, HEL-92-1-7, Hematopoietic, Leukemia",> 10 µM
same,IC50,"HMCB, read-out: Cell Count IC50, HMCB, Skin, Melanoma",> 10 µM
same,IC50,"HPAF-II, read-out: Cell Count IC50, HPAF-II, Pancreas",1 to 10 µM
same,IC50,"HT1197, read-out: Cell Count IC50, HT-1197, Bladder",1 to 10 µM
same,IC50,"HT-29, read-out: Cell Count IC50, HT-29, Colon",1 to 10 µM
same,IC50,"HT-1080, read-out: Cell Count IC50, HT-1080, Soft & Connective Tissue, Sarcoma",> 10 µM
same,IC50,"HT-1376, read-out: Cell Count IC50, HT1376, Bladder",> 10 µM
same,IC50,"HeLa, read-out: Cell Count IC50, HeLa, Female GU, Cervix",> 10 µM
same,IC50,"HepG2, read-out: Cell Count IC50, HepG2, Liver",> 10 µM
same,IC50,"Hs 294T, read-out: Cell Count IC50, Hs 294T, Skin, Melanoma",1 to 10 µM
same,IC50,"Hs 683, read-out: Cell Count IC50, Hs 683, Central Nervous System, Glioma",1 to 10 µM
same,IC50,"Hs 695T, read-out: Cell Count IC50, Hs 695T, Skin, Melanoma",1 to 10 µM
same,IC50,"Hs746T, read-out: Cell Count IC50, HS 746T, Stomach",> 10 µM
same,IC50,"Hs-578T, read-out: Cell Count IC50, Hs 578T, Breast",> 10 µM
same,IC50,"HuCCT-1, read-out: Cell Count IC50, HuCCT1, Liver",1 to 10 µM
same,IC50,"HuP-T4, read-out: Cell Count IC50, HuP-T4, Pancreas",1 to 10 µM
same,IC50,"HuTu80, read-out: Cell Count IC50, HuTu 80, Duodenum",1 to 10 µM
same,IC50,"JEG-3, read-out: Cell Count IC50, JEG-3, Placenta",> 10 µM
same,IC50,"JIYOYE, read-out: Cell Count IC50, Jiyoye, Hematopoietic, Lymphoma",> 10 µM
same,IC50,"JeKo-1, read-out: Cell Count IC50, JeKo-1, Hematopoietic, Lymphoma",1 to 10 µM
same,IC50,"Jurkat, read-out: Cell Count IC50, Jurkat, Hematopoietic, Leukemia",1 to 10 µM
same,IC50,"K562, read-out: Cell Count IC50, K562, Hematopoietic, Leukemia",1 to 10 µM
same,IC50,"KATO III, read-out: Cell Count IC50, KATO III, Stomach",1 to 10 µM
same,IC50,"KU812, read-out: Cell Count IC50, KU812, Hematopoietic, Leukemia",> 10 µM
same,IC50,"LNCaP, read-out: Cell Count IC50, LNCaP, Prostate",0.1 to 1 µM
same,IC50,"LS174T, read-out: Cell Count IC50, LS-174T, Colon",1 to 10 µM
same,IC50,"LS-123, read-out: Cell Count IC50, LS123, Colon",1 to 10 µM
same,IC50,"LS-411N, read-out: Cell Count IC50, LS411N, Colon",1 to 10 µM
same,IC50,"LS-513, read-out: Cell Count IC50, LS513, Colon",1 to 10 µM
same,IC50,"LS-1034, read-out: Cell Count IC50, LS1034, Colon",> 10 µM
same,IC50,"M059J, read-out: Cell Count IC50, M059J, Central Nervous System, Glioma",> 10 µM
same,IC50,"MC-IXC, read-out: Cell Count IC50, MC-IXC, Central Nervous System, Neuroblastoma",> 10 µM
same,IC50,"MCF7, read-out: Cell Count IC50, MCF7, Breast",> 10 µM
same,IC50,"MDA-MB-231, read-out: Cell Count IC50, MDA MB 231, Breast",1 to 10 µM
same,IC50,"MDA-MB-415, read-out: Cell Count IC50, MDA-MB-415, Breast",> 10 µM
same,IC50,"MDA-MB-436, read-out: Cell Count IC50, MDA-MB-436, Breast",> 10 µM
same,IC50,"MDA-MB-453, read-out: Cell Count IC50, MDA MB 453, Breast",1 to 10 µM
same,IC50,"MDA-MB-468, read-out: Cell Count IC50, MDA MB 468, Breast",1 to 10 µM
same,IC50,"ME-180, read-out: Cell Count IC50, ME-180, Female GU, Cervix",> 10 µM
same,IC50,"MEG-01, read-out: Cell Count IC50, MEG01, Hematopoietic, Leukemia",1 to 10 µM
same,IC50,"MES-SA, read-out: Cell Count IC50, MES-SA, Soft & Connective Tissue, Sarcoma",1 to 10 µM
same,IC50,"MG-63, read-out: Cell Count IC50, MG-63, Bone, Osteosarcoma",1 to 10 µM
same,IC50,"MHH-PREB-1, read-out: Cell Count IC50, MHH-PREB-1, Hematopoietic, Leukemia",1 to 10 µM
same,IC50,"MIA PaCa-2, read-out: Cell Count IC50, Mia PaCa-2, Pancreas",1 to 10 µM
same,IC50,"MOLT-3, read-out: Cell Count IC50, MOLT-3, Hematopoietic, Leukemia",1 to 10 µM
same,IC50,"MOLT-16, read-out: Cell Count IC50, MOLT-16, Hematopoietic, Leukemia",1 to 10 µM
same,IC50,"MV4-11, read-out: Cell Count IC50, MV-4-11, Hematopoietic, Leukemia",0.1 to 1 µM
same,IC50,"Malme-3M, read-out: Cell Count IC50, MALME3M, Skin, Melanoma",> 10 µM
same,IC50,"MeWo, read-out: Cell Count IC50, MeWo, Skin, Melanoma",1 to 10 µM
same,IC50,"NALM-6, read-out: Cell Count IC50, NALM-6, Hematopoietic, Leukemia",1 to 10 µM
same,IC50,"NCI-H69, read-out: Cell Count IC50, NCI-H69, Lung, SCLC",0.1 to 1 µM
same,IC50,"NCI-H292, read-out: Cell Count IC50, NCI-H292, Lung, NSCLC",> 10 µM
same,IC50,"NCI-H295R, read-out: Cell Count IC50, NCI-H295R, Endocrine, Adrenal gland",> 10 µM
same,IC50,"NCI-H441, read-out: Cell Count IC50, NCIH441, Lung, NSCLC",> 10 µM
same,IC50,"NCI-H446, read-out: Cell Count IC50, NCIH446, Lung, SCLC",1 to 10 µM
same,IC50,"NCI-H460, read-out: Cell Count IC50, NCI-H460, Lung, NSCLC",> 10 µM
